From patent publication US20240158392A1 (Janssen Biotech, Inc., priority 2021, published 2024)

target: SIK2 (Homo sapiens, UniProt Q9H0K1); test: SIK2 Enzymatic Assay High Version 2 (High ATP); type: biochemical; conditions: not given
Procedure: All steps were performed at room temperature. Compounds were pre-plated onto an assay plate using an Echo acoustic dispenser (Labcyte, E550 or E555) at 80 nL per well. Enzyme prepared in assay buffer at 6 nM (2× final concentration) was added at 4 μL per well using the Multidrop Combi (Thermo Fisher—used for all additions in this assay) to the assay plate, spun for 1 min at 1000 rpm (Allegra 6KR Beckman Coulter centrifuge), and incubated with compound for 30 minutes. Assay buffer containing 6 mM ATP and 400 μM HDAC5tide (2× of final concentration for each substrate) was added at 4 μL per well to the assay plate and then spun as above and incubated for 2 hours. […] ADP-Glo Max Reagent (prepared and aliquoted as per manufacturer instructions) was then added at 8 μL per well, spun and incubated for 2 hours. ADP-Glo Max Detection (prepared and aliquoted as per manufacturer instructions) was added at 8 μL per well to the assay plate, which was spun and incubated for 1 hour. The plate is then read on the Pherastar (BMG Labtech) using a luminescence read. Gain is set between 2200-2500.

Chain of SIK2 (Q9H0K1 whole entry, species assumed): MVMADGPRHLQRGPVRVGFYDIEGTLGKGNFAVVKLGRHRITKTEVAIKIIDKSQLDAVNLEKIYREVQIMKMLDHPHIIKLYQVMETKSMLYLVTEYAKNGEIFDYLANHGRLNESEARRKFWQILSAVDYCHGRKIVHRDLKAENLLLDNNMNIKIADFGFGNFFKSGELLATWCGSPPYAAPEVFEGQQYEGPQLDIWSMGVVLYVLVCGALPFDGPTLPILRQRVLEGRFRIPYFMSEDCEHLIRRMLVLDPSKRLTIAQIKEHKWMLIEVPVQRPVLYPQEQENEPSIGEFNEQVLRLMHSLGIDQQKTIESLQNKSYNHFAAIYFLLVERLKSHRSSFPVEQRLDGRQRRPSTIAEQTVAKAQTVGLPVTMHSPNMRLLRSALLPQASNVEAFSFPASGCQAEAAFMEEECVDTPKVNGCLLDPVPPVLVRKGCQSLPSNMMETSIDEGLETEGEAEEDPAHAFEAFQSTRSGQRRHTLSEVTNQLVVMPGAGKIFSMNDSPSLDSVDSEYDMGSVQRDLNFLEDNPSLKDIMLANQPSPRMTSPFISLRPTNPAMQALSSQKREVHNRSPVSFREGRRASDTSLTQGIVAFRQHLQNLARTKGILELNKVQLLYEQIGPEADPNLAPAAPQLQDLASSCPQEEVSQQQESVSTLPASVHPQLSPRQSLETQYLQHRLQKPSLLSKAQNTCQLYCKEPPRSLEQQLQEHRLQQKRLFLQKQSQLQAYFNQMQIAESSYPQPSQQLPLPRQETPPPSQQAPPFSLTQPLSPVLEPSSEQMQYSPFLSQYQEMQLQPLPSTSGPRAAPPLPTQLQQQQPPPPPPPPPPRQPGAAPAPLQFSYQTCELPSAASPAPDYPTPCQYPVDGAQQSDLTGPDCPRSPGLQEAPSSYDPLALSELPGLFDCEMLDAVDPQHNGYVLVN

IC50 [µM]	SMILES
0.0167	Cc1cc(-c2ccn3nc(Nc4cc(C)nc(C)n4)cc3c2)c(OC[C@@H]2CC[C@@H](O)CO2)cn1 (single isomer, unassigned) [Example 346, (3*R,6*S)-6-[[4-[2-[(2,6-dimethylpyrimidin-4-yl)amino]pyrazolo[1,5-a]pyridin-5-yl]-6-methyl-3-pyridyl]oxymethyl]tetrahydropyran-3-ol]
0.0352	Cc1cc(-c2ccn3nc(Nc4cc(C)nc(C)n4)cc3c2)c(OC[C@H]2CC[C@H](O)CO2)cn1 (single isomer, unassigned) [Example 347, (3*S,6*S)-6-[[4-[2-[(2,6-dimethylpyrimidin-4-yl)amino]pyrazolo[1,5-a]pyridin-5-yl]-6-methyl-3-pyridyl]oxymethyl]tetrahydropyran-3-ol]

SMILES	IC50 [µM]
Cc1cc(-c2cn3cc(Nc4cc(C)nc(C)n4)nc3cn2)c(O[C@H]2C[C@H]3COC[C@@H](C2)N3)cn1 (single isomer, unassigned) [Example 348]	< 0.000847

same assay, conditions: enzyme 6 nM, 6 mM ATP and 400 μM HDAC5tide (each 2× final concentration); 30 minutes pre-incubation, 2 hours; ADP-Glo Max luminescence; read-out: SIK2 high ATP IC50 (μM) (Test Example 2)

IC50 [µM]	SMILES
0.0472	Cc1cc(-c2ccn3nc(NC(=O)C4CC4)cc3c2)c(OC[C@@]2(C#N)CCN(C)C2)cn1 (single isomer, unassigned) [Example 212, (*S)—N-[5-[5-[(3-cyano-1-methyl-pyrrolidin-3-yl)methoxy]-2-methyl-4-pyridyl]pyrazolo[1,5-a]pyridin-2-yl]cyclopropanecarboxamide]
0.0505	Cc1cc(-c2ccn3nc(NC(=O)C4CC4)cc3c2)c(OC[C@]2(C#N)CCN(C)C2)cn1 (single isomer, unassigned) [Example 213, (*R)—N-[5-[5-[(3-cyano-1-methyl-pyrrolidin-3-yl)methoxy]-2-methyl-4-pyridyl]pyrazolo[1,5-a]pyridin-2-yl]cyclopropanecarboxamide]
0.0324	CO[C@]1(COc2cnc(C)cc2-c2ccn3nc(NC(=O)C4CC4)cc3c2)CCNC1 (single isomer, unassigned) [Example 214, (*R)—N-[5-[5-[(3-methoxypyrrolidin-3-yl)methoxy]-2-methyl-4-pyridyl]pyrazolo[1,5-a]pyridin-2-yl]cyclopropanecarboxamide]
0.0037	CO[C@@]1(COc2cnc(C)cc2-c2ccn3nc(NC(=O)C4CC4)cc3c2)CCNC1 (single isomer, unassigned) [Example 215, (*S)—N-[5-[5-[(3-methoxypyrrolidin-3-yl)methoxy]-2-methyl-4-pyridyl]pyrazolo[1,5-a]pyridin-2-yl]cyclopropanecarboxamide]
0.0311	Cc1cc(-c2ccn3nc(Nc4cc(C)nc(C)n4)cc3c2)c(OC[C@@]2(O)CCCOC2)cn1 (single isomer, unassigned) [Example 216, (*R)-3-[[4-[2-[(2,6-dimethylpyrimidin-4-yl)amino]pyrazolo[1,5-a]pyridin-5-yl]-6-methyl-3-pyridyl]oxymethyl]tetrahydropyran-3-ol]
0.0497	Cc1cc(-c2ccn3nc(Nc4cc(C)nc(C)n4)cc3c2)c(OC[C@@H]2CC3(CCCC3)CO2)cn1 (single isomer, unassigned) [Example 219, (*S)—N-(2,6-dimethylpyrimidin-4-yl)-5-[2-methyl-5-(8-oxaspiro[4.4]nonan-7-ylmethoxy)-4-pyridyl]pyrazolo[1,5-a]pyridin-2-amine]
0.0142	Cc1cc(-c2ccn3nc(Nc4cc(C)nc(C)n4)cc3c2)c(OC[C@@H]2CC3(CCC3)CO2)cn1 (single isomer, unassigned) [Example 220, (*S)-5-(5-((6-oxaspiro[3.4]octan-7-yl)methoxy)-2-methylpyridin-4-yl)-N-(2,6-dimethylpyrimidin-4-yl)pyrazolo[1,5-a]pyridin-2-amine]
0.0119	Cc1cc(-c2ccn3nc(NC(=O)C4CC4)cc3c2)c(OCC2(O)CCNC2)cn1 (single isomer, unassigned) [Example 222, (*S)—N-[5-[5-[(3-hydroxypyrrolidin-3-yl)methoxy]-2-methyl-4-pyridyl]pyrazolo[1,5-a]pyridin-2-yl]cyclopropanecarboxamide]
0.0278	Cc1cc(-c2ccn3nc(NC(=O)C4CC4)cc3c2)c(OCC2(O)CCNC2)cn1 (single isomer, unassigned) [Example 223, (*R)—N-[5-[5-[(3-hydroxypyrrolidin-3-yl)methoxy]-2-methyl-4-pyridyl]pyrazolo[1,5-a]pyridin-2-yl]cyclopropanecarboxamide]
0.0377	Cc1cc(-c2ccn3nc(Nc4cc(C)nc(C)n4)cc3c2)c(OC[C@@H]2CCC3(CCCC3)O2)cn1 (single isomer, unassigned) [Example 230, (*S)—N-(2,6-dimethylpyrimidin-4-yl)-5-[2-methyl-5-(9-oxaspiro[4.4]nonan-8-ylmethoxy)-4-pyridyl]pyrazolo[1,5-a]pyridin-2-amine]
0.00839	Cc1cc(-c2ccn3nc(Nc4cc(C)nc(C)n4)cc3c2)c(OC[C@H]2CCC3(CCCC3)O2)cn1 (single isomer, unassigned) [Example 231, (*R)—N-(2,6-dimethylpyrimidin-4-yl)-5-[2-methyl-5-(9-oxaspiro[4.4]nonan-8-ylmethoxy)-4-pyridyl]pyrazolo[1,5-a]pyridin-2-amine]
0.0245	Cc1cc(-c2ccn3nc(Nc4cc(C)nc(C)n4)cc3c2)c(OC[C@]2(C)CCCO2)cn1 (single isomer, unassigned) [Example 232, (*S)—N-(2,6-dimethylpyrimidin-4-yl)-5-[2-methyl-5-[(2-methyltetrahydrofuran-2-yl)methoxy]-4-pyridyl]pyrazolo[1,5-a]pyridin-2-amine]
0.153	Cc1cc(-c2ccn3nc(Nc4cc(C)nc(C)n4)cc3c2)c(OC[C@H]2CC3(CCCC3)CO2)cn1 (single isomer, unassigned) [Example 258, (*R)—N-(2,6-dimethylpyrimidin-4-yl)-5-[2-methyl-5-(8-oxaspiro[4.4]nonan-7-ylmethoxy)-4-pyridyl]pyrazolo[1,5-a]pyridin-2-amine]
0.00844	Cc1cc(-c2ccn3nc(Nc4cc(C)nc(C)n4)cc3c2)c(OCC(C)(O)C(F)(F)F)cn1 (single isomer, unassigned) [Example 263, (*S)-3-[[4-[2-[(2,6-dimethylpyrimidin-4-yl)amino]pyrazolo[1,5-a]pyridin-5-yl]-6-methyl-3-pyridyl]oxy]-1,1,1-trifluoro-2-methyl-propan-2-ol]
0.0348	Cc1cc(-c2ccn3nc(Nc4cc(C)nc(C)n4)cc3c2)c(OC[C@@](C)(O)C(F)(F)F)cn1 (single isomer, unassigned) [Example 264, (*R)-3-[[4-[2-[(2,6-dimethylpyrimidin-4-yl)amino]pyrazolo[1,5-a]pyridin-5-yl]-6-methyl-3-pyridyl]oxy]-1,1,1-trifluoro-2-methyl-propan-2-ol]
0.0193	Cc1cc(-c2ccn3nc(Nc4cc(C)nc(C)n4)cc3c2)c(OC[C@@](C)(N)C(F)(F)F)cn1 (single isomer, unassigned) [Example 270, (*R)-5-[5-(2-Amino-3,3,3-trifluoro-2-methyl-propoxy)-2-methyl-4-pyridyl]-N-(2,6-dimethylpyrimidin-4-yl)pyrazolo[1,5-a]pyridin-2-amine]
0.0028	Cc1cc(-c2ccn3nc(Nc4cc(C)nc(C)n4)cc3c2)c(OC[C@](C)(N)C(F)(F)F)cn1 (single isomer, unassigned) [Example 304, (*S)-5-[5-(2-amino-3,3,3-trifluoro-2-methyl-propoxy)-2-methyl-4-pyridyl]-N-(2,6-dimethylpyrimidin-4-yl)pyrazolo[1,5-a]pyridin-2-amine]
0.0358	Cc1cc(-c2ccn3nc(Nc4cc(C)c(=O)n(C)n4)cc3c2)c(OC2CCC(S(C)(=O)=O)CC2)cn1 (single isomer, unassigned) [Example 306, 2,4-dimethyl-6-((5-(2-methyl-5-(((1r,4r)-4-(methylsulfonyl)cyclohexyl)oxy)pyridin-4-yl)pyrazolo[1,5-a]pyridin-2-yl)amino)pyridazin-3(2H)-one]
0.0057	Cc1cc(-c2ccn3nc(Nc4cc(C)c(=O)n(C)n4)cc3c2)c(OC[C@@](C)(N)C(F)(F)F)cn1 (single isomer, unassigned) [Example 311, (*R)-6-[[5-[5-(2-amino-3,3,3-trifluoro-2-methyl-propoxy)-2-methyl-4-pyridyl]pyrazolo[1,5-a]pyridin-2-yl]amino]-2,4-dimethyl-pyridazin-3-one]
< 0.000847	Cc1cc(-c2ccn3nc(Nc4cc(C)c(=O)n(C)n4)cc3c2)c(OC[C@](C)(N)C(F)(F)F)cn1 (single isomer, unassigned) [Example 312, (*S)-6-[[5-[5-(2-amino-3,3,3-trifluoro-2-methyl-propoxy)-2-methyl-4-pyridyl]pyrazolo[1,5-a]pyridin-2-yl]amino]-2,4-dimethyl-pyridazin-3-one]
0.00278	Cc1cc(-c2ccn3nc(Nc4cc(C)nc(C)n4)cc3c2)c(OC[C@@H]2COC[C@H](O)C2)cn1 (single isomer, unassigned) [Example 351, (3*R, 5*S)-5-[[4-[2-[(2,6-dimethylpyrimidin-4-yl)amino]pyrazolo[1,5-a]pyridin-5-yl]-6-methyl-3-pyridyl]oxymethyl]tetrahydropyran-3-ol]
0.0322	Cc1cc(-c2ccn3nc(Nc4cc(C)nc(C)n4)cc3c2)c(O[C@@H]2CCS(=O)(=O)N(C)C2)cn1 (single isomer, unassigned) [Example 354, (*R)—N-(2,6-dimethylpyrimidin-4-yl)-5-[2-methyl-5-(2-methyl-1,1-dioxo-thiazinan-4-yl)oxy-4-pyridyl]pyrazolo[1,5-a]pyridin-2-amine]
